Test results from the kinase profiling compilation of Christmann-Franck et al. (2016).

Key:
Assay in all cases: KINOMEscan competition binding
Settings in all cases: compound 10.0 µM
BRSK2 (human) = BRSK2 (human) (UniProt Q8IWQ3)
LCK (human) = LCK (human) (UniProt P06239)
CDKL2 (human) = CDKL2 (human) (UniProt Q92772)
RPS6KA5 KD1 (human) = RPS6KA5 KD1 (human) (UniProt O75582)
MAP3K15 (human) = MAP3K15 (human) (UniProt Q6ZN16)
PAK2 (human) = PAK2 (human) (UniProt Q13177)
CDC2L2 (human) = CDC2L2 (human) (UniProt Q9UQ88)
MAPK12 (human) = MAPK12 (human) (UniProt P53778)
DAPK1 (human) = DAPK1 (human) (UniProt P53355)
EPHB2 (human) = EPHB2 (human) (UniProt P29323)
CDK18 (human) = CDK18 (human) (UniProt Q07002)
RPS6KA3 KD1 (human) = RPS6KA3 KD1 (human) (UniProt P51812)
CDK5 (human) = CDK5 (human) (UniProt Q00535)
TGFBR1 (human) = TGFBR1 (human) (UniProt P36897)
CSNK1G1 (human) = CSNK1G1 (human) (UniProt Q9HCP0)
[1] = system: RET (human), P07949 [V804L]
PRKAA2 (human) = PRKAA2 (human) (UniProt P54646)
PIK3CG (human) = PIK3CG (human) (UniProt P48736)
PRKD3 (human) = PRKD3 (human) (UniProt O94806)
AKT2 (human) = AKT2 (human) (UniProt P31751)
DAPK3 (human) = DAPK3 (human) (UniProt O43293)
PDPK1 (human) = PDPK1 (human) (UniProt O15530)
RPS6KB1 (human) = RPS6KB1 (human) (UniProt P23443)
DMPK (human) = DMPK (human) (UniProt Q09013)
RPS6KA6 KD1 (human) = RPS6KA6 KD1 (human) (UniProt Q9UK32)
PIK3CB (human) = PIK3CB (human) (UniProt P42338)
TEK (human) = TEK (human) (UniProt Q02763)
NTRK3 (human) = NTRK3 (human) (UniProt Q16288)
CASK (human) = CASK (human) (UniProt O14936)
SGK110 (human) = SGK110 (human) (UniProt P0C264)
AURKB (human) = AURKB (human) (UniProt Q96GD4)
CAMK4 (human) = CAMK4 (human) (UniProt Q16566)
PIP5K1C (human) = PIP5K1C (human) (UniProt O60331)
RIPK4 (human) = RIPK4 (human) (UniProt P57078)
LRRK2 (human) = LRRK2 (human) (UniProt Q5S007)
NEK9 (human) = NEK9 (human) (UniProt Q8TD19)
KIT (human) = KIT (human) (UniProt P10721)
DYRK1A (human) = DYRK1A (human) (UniProt Q13627)
CDK11B (human) = CDK11B (human) (UniProt P21127)
MKNK1 (human) = MKNK1 (human) (UniProt Q9BUB5)

PAK2 (human), sequence (Q13177 whole entry, looked up): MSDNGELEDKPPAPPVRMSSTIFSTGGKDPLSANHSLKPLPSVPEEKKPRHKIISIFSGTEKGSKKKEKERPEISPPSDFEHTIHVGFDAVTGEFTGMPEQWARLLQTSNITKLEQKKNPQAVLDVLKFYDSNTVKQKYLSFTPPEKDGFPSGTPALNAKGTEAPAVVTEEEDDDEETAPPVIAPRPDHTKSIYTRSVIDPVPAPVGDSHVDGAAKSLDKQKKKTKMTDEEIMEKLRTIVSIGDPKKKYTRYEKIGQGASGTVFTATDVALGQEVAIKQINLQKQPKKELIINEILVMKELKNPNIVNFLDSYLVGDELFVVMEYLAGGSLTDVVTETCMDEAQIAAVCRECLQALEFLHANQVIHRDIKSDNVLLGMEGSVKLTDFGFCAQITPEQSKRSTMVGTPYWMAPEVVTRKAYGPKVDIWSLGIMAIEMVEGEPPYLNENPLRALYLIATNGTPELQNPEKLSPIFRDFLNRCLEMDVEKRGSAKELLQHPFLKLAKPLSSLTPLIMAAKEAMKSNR
PDPK1 (human), sequence (O15530 whole entry, looked up): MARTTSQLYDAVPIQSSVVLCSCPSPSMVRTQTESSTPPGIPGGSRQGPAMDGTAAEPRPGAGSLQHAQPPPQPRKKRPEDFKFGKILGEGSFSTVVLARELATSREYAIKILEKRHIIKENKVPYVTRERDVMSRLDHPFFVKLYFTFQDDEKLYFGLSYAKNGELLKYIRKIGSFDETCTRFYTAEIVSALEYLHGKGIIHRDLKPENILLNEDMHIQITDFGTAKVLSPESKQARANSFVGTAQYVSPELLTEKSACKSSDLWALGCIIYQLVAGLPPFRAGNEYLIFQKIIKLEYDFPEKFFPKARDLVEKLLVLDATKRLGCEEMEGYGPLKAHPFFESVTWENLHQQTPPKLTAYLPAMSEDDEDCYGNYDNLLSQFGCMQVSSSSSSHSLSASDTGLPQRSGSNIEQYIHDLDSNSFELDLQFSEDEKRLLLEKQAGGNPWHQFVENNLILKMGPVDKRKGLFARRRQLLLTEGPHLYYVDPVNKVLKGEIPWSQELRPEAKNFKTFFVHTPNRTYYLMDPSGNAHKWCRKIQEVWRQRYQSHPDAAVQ
PIK3CG (human), sequence (P48736 whole entry, looked up): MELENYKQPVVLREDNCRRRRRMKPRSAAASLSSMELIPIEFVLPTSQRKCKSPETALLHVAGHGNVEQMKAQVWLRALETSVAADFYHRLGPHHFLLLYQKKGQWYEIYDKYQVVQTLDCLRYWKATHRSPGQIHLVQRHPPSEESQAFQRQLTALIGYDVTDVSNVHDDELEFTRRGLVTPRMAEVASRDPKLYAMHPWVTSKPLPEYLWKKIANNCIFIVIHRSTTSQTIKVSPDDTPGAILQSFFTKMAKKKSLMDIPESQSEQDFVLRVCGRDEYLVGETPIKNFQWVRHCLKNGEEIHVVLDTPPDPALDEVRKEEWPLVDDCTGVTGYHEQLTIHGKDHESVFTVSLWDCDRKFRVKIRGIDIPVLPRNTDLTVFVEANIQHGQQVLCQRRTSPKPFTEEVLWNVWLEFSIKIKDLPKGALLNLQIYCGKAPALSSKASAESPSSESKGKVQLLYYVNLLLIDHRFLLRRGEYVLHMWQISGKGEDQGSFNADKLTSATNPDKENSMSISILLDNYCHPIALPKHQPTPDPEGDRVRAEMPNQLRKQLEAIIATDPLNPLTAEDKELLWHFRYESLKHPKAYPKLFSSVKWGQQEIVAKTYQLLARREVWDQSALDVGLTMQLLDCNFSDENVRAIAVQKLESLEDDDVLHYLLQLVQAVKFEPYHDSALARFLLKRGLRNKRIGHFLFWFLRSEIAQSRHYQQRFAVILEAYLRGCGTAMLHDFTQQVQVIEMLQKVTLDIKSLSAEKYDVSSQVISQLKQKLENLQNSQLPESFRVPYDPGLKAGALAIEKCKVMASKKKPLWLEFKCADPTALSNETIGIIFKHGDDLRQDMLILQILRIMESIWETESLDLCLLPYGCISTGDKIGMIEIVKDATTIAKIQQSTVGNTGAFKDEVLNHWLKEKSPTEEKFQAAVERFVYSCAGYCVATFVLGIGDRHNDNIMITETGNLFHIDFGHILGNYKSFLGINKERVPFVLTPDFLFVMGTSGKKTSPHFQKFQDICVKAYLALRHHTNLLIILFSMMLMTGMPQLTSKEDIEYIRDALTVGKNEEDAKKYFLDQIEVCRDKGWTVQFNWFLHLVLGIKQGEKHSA
EPHB2 (human), sequence (P29323 whole entry, looked up): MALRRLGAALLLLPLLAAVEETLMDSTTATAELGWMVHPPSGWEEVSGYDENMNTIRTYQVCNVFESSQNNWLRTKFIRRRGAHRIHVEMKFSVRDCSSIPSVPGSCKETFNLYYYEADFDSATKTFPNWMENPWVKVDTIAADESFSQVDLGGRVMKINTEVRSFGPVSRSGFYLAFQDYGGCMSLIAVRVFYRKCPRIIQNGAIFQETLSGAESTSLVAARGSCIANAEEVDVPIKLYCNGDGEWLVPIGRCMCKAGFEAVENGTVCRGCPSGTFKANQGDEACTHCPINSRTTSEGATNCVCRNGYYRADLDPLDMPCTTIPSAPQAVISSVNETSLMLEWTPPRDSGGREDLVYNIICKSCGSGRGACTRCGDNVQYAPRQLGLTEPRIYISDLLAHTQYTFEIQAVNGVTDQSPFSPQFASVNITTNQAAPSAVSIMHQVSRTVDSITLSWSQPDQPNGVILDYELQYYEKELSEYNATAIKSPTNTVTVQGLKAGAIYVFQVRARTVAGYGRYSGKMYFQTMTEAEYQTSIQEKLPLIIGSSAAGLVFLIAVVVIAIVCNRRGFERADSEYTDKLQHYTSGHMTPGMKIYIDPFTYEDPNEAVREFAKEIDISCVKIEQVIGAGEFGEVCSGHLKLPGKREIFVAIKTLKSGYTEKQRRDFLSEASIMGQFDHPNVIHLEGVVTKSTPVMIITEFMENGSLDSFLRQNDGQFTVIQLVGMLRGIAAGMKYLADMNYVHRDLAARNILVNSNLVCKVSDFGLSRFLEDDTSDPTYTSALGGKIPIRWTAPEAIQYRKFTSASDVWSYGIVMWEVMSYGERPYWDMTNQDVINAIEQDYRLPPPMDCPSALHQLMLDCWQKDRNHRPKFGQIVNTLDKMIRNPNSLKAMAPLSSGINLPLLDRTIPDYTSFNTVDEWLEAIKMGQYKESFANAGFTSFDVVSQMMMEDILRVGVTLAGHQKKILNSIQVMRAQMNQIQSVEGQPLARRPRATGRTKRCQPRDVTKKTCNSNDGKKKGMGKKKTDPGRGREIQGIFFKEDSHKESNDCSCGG
PRKD3 (human), sequence (O94806 whole entry, looked up): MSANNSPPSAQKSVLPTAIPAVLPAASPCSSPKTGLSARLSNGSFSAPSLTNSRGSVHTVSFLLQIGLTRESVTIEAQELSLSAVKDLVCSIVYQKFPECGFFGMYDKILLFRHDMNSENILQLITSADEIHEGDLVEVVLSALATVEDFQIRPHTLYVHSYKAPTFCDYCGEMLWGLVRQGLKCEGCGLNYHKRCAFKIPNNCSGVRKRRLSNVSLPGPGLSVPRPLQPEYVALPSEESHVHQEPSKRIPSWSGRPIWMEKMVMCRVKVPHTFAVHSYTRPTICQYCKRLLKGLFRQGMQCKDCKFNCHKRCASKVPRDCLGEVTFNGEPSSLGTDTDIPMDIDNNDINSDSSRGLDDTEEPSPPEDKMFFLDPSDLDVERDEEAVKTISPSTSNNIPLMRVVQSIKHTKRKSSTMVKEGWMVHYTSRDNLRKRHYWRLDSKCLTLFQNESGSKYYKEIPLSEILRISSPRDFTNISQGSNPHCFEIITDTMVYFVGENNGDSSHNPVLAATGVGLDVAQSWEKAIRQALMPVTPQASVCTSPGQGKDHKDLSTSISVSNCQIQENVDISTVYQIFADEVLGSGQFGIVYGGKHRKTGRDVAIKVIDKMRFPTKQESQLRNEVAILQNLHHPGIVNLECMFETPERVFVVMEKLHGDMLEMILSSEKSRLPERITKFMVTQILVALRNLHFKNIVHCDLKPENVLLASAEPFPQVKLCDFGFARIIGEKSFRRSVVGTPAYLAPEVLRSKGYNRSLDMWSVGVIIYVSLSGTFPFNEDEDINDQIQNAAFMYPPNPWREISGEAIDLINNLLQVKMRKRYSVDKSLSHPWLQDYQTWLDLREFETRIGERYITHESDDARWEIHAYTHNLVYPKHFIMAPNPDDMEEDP
SGK110 (human), sequence (P0C264 whole entry, looked up): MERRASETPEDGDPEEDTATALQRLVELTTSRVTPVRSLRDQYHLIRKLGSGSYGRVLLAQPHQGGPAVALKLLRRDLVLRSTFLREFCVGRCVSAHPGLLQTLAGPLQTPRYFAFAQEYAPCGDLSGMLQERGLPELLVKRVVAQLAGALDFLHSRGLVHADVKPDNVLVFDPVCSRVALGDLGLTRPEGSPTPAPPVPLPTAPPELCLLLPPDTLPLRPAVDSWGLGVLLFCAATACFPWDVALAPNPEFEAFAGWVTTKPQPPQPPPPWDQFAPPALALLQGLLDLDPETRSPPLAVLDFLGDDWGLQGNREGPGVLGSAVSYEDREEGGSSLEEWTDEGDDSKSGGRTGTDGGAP
TGFBR1 (human), sequence (P36897 whole entry, looked up): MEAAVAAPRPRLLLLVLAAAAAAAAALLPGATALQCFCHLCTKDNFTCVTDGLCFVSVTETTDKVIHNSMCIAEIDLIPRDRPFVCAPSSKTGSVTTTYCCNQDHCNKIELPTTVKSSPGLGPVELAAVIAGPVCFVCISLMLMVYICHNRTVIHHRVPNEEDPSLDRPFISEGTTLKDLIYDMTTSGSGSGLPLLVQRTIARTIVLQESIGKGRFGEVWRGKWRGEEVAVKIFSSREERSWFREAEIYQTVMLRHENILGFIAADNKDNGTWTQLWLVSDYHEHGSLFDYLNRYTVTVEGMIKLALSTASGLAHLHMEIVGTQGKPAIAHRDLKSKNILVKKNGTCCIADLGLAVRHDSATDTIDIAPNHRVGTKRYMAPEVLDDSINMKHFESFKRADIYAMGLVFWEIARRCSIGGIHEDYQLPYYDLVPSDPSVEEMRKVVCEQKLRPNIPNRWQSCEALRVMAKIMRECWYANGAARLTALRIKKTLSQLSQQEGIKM

| Compound | kinase still bound, per cent of control (BRSK2 (human)) | kinase still bound, per cent of control (LCK (human)) | kinase still bound, per cent of control (CDKL2 (human)) | kinase still bound, per cent of control (RPS6KA5 KD1 (human)) | kinase still bound, per cent of control (MAP3K15 (human)) | kinase still bound, per cent of control (PAK2 (human)) | kinase still bound, per cent of control (CDC2L2 (human)) | kinase still bound, per cent of control (MAPK12 (human)) | kinase still bound, per cent of control (DAPK1 (human)) | kinase still bound, per cent of control (EPHB2 (human)) | kinase still bound, per cent of control (CDK18 (human)) | kinase still bound, per cent of control (RPS6KA3 KD1 (human)) | kinase still bound, per cent of control (CDK5 (human)) | kinase still bound, per cent of control (TGFBR1 (human)) | kinase still bound, per cent of control (CSNK1G1 (human)) | kinase still bound, per cent of control [1] | kinase still bound, per cent of control (PRKAA2 (human)) | kinase still bound, per cent of control (PIK3CG (human)) | kinase still bound, per cent of control (PRKD3 (human)) | kinase still bound, per cent of control (AKT2 (human)) | other results |
| --- | --- | --- | --- | --- | --- | --- | --- | --- | --- | --- | --- | --- | --- | --- | --- | --- | --- | --- | --- | --- | --- |
| CC1=C(C(=O)Nc2cc3cn[nH]c3cc2F)C(c2ccc(C(F)(F)F)cc2)CC(=O)N1 (stereo not given) | 90% | 30% | 94% | 88% | 77% | 88% | 96% | 79% | 81% | 100% | 100% | 53% | 80% | 100% | 100% | 39% | 25% | 88% | 81% | 64% | kinase still bound, per cent of control (DAPK3 (human)): 77%; kinase still bound, per cent of control (PDPK1 (human)): 100%; kinase still bound, per cent of control (RPS6KB1 (human)): 50%; kinase still bound, per cent of control (DMPK (human)): 100%; kinase still bound, per cent of control (RPS6KA6 KD1 (human)): 42%; kinase still bound, per cent of control (PIK3CB (human)): 86%; kinase still bound, per cent of control (TEK (human)): 83%; kinase still bound, per cent of control (NTRK3 (human)): 100%; kinase still bound, per cent of control (CASK (human)): 88%; kinase still bound, per cent of control (SGK110 (human)): 59%; kinase still bound, per cent of control (AURKB (human)): 42%; kinase still bound, per cent of control (CAMK4 (human)): 100%; kinase still bound, per cent of control (PIP5K1C (human)): 92%; kinase still bound, per cent of control (RIPK4 (human)): 98%; kinase still bound, per cent of control (LRRK2 (human)): 100%; kinase still bound, per cent of control (NEK9 (human)): 89%; kinase still bound, per cent of control (KIT (human)): 90%; kinase still bound, per cent of control (DYRK1A (human)): 100%; kinase still bound, per cent of control (CDK11B (human)): 89%; kinase still bound, per cent of control (MKNK1 (human)): 100% |
| CCCS(=O)(=O)Nc1ccc(F)c(C(=O)c2c[nH]c3ncc(Cl)cc23)c1F | 86% | 3.2% | 49% | 100% | 74% | 37% | 95% | 100% | 89% | 100% | 73% | 56% | 57% | 60% | 66% | 96% | 46% | 83% | 100% | 68% | kinase still bound, per cent of control (DAPK3 (human)): 85%; kinase still bound, per cent of control (PDPK1 (human)): 85%; kinase still bound, per cent of control (RPS6KB1 (human)): 58%; kinase still bound, per cent of control (DMPK (human)): 100%; kinase still bound, per cent of control (RPS6KA6 KD1 (human)): 80%; kinase still bound, per cent of control (PIK3CB (human)): 100%; kinase still bound, per cent of control (TEK (human)): 100%; kinase still bound, per cent of control (NTRK3 (human)): 77%; kinase still bound, per cent of control (CASK (human)): 51%; kinase still bound, per cent of control (SGK110 (human)): 100%; kinase still bound, per cent of control (AURKB (human)): 29%; kinase still bound, per cent of control (CAMK4 (human)): 100%; kinase still bound, per cent of control (PIP5K1C (human)): 79%; kinase still bound, per cent of control (RIPK4 (human)): 89%; kinase still bound, per cent of control (LRRK2 (human)): 37%; kinase still bound, per cent of control (NEK9 (human)): 66%; kinase still bound, per cent of control (KIT (human)): 0.1%; kinase still bound, per cent of control (DYRK1A (human)): 76%; kinase still bound, per cent of control (CDK11B (human)): 99%; kinase still bound, per cent of control (MKNK1 (human)): 100% |
